From patent US9896458B2, “Compounds, compositions and methods” (Denali Therapeutics Inc., priority 0216, dated 2018)
Where two headings read alike, the source gives them in different places.

Legend:
[1] = Metabolic stability (hepatocytes); format: in vitro ADME; settings: human cryopreserved hepatocytes, well-stirred model
From the text: Hepatic clearance is expressed as mL/min/kg.

[2] = cynomolgus monkey, in vivo
Procedure: (§1) The protein binding in plasma was determined using a Rapid Equilibrium Dialysis Device (Thermo Scientific RED Device) or 96-well dialyzer apparatus (HTDialysis LLC). […] If required, plasma samples were pre-incubated (2 hours at 37° C.) with diisopropyl fluorophosphate (DFP) at the final concentration of 100 μM to prevent compound degradation due to amide hydrolysis. Appropriate volumes of spiked samples along with blank phosphate buffer were added to either device and incubated at 37° C. for a total of 5 hours with agitation at 500 rpm. Following incubation, an equal aliquot of dialysed matrix (plasma or buffer) is added to an equal volume of the opposite blank matrix such that the volume of buffer to plasma are equal. Mixed matrix samples were extracted by protein precipitation using acetonitrile containing the appropriate IS. Samples were then centrifuged for 10 min at 2800 rpm. Supernatants were collected and diluted and then injected on to an HPLC-MS/MS or UPLC-MS/MS system. Samples were analyzed by monitoring the appropriate parent/daughter ion transitions for the test and control compounds. The peak area ratios were used to measure test item concentrations. The fraction unbound (Afu) was determined as the ratio of the peak area ratio in buffer divided by the peak area ratio in plasma.
(§2) The PK properties of test articles were determined in male Sprague-Dawley Crl:CD(SD) rats, male Beagle dogs and male cynomolgus monkeys. Studies were conducted to the highest standards of animal welfare in accordance with national legislation and under approval of the internal animal care and use committees.
(§3) Compounds were administered by IV bolus to animals following an overnight fast. […] The formulations were administered at dose volumes ranging from 0.5-2 mL/kg. The IV dose ranged from 0.5-1 mg/kg.
(§4) Following dose administration, 8-9 serial blood samples were collected over 24 hours. Samples were mixed with anticoagulant and placed on wet ice prior to processing. Plasma was harvested following centrifugation, extracted using protein precipitation with acetonitrile containing IS. The processed supernatant was analyzed using UPLC or LC-MS/MS using specific parent/daughter ion pairs for the test article and IS. Plasma concentrations were determined using a calibration curve prepared using known concentrations of analyte. Pharmacokinetic parameters utilizing measured concentrations were calculated using Phoenix WinNonlin. The unbound plasma clearance was calculated as the ratio of the total body clearance divided by the fraction unbound in plasma.

[3] = in vivo
Procedure: as §1, §2, §3, §4

[4] = in vivo; remark: listed apart in the source
Procedure: as §1
The PK properties of test articles were determined in male Sprague-Dawley Crl:CD(SD) rats, male Beagle dogs and male cynomolgus monkeys. […]
Following dose administration, 8-9 serial blood samples were collected over 24 hours. […] The processed supernatant was analyzed using UPLC or LC-MS/MS using specific parent/daughter ion pairs for the test article and IS. Plasma concentrations were determined using a calibration curve prepared using known concentrations of analyte. Pharmacokinetic parameters utilizing measured concentrations were calculated using Phoenix WinNonlin. The unbound plasma clearance was calculated as the ratio of the total body clearance divided by the fraction unbound in plasma.

[5] = test system: TNF/zVAD induced temperature loss; settings: dose of 30 mg/kg, from WO 2014/125444 Table 2; cited from earlier work
[6] = test system: FADD-deficient Jurkat cells; experiment: cellular necroptosis assay (human TNFα induced); format: cell-based; settings: 48 h, human TNFα 10 ng/mL, viability after 48 h, CellTiter-Glo, read-out: Cell IC50
[7] = test system: TNF/zVAD induced temperature loss; experiment: TNF-driven systemic inflammatory response syndrome model (TNF/zVAD); format: in vivo; settings: mice, 5 mg/kg oral, 15 minutes before intravenous TNF/zVAD
From the text: The in vivo efficacy of compounds can be determined in mice using a TNF-driven systemic inflammatory response syndrome model as described by Duprez et. al. (2011, Immunity 35(6), 908-918) and Berger et. al. (2015, Cell Death Disc. 1, 15009). In this model system TNF/zVAD (tumor necrosis factor/Z-Val-Ala-DL-Asp-fluoromethylketone, a caspase inhibitor) treatment results in temperature loss and the production of several inflammatory cytokines. The ability of a test compound to inhibit these inflammatory effects can be measured in this model by dosing mice with test compound 15 minutes before administration of TNF/zVAD and measuring the inflammatory response. The dose required to inhibit the inflammatory response is a measure of the compounds efficacy at that dose. Using this model, Compound 42 was orally pre-dosed at 5 mg/kg 15 minutes before intraveneous administration of TNF/zVAD and temperature loss in the mice was measured by an implanted temperature chip. […] The decrease in dosing has a number of important potential advantages, including requiring less frequent administration to a patient, increased patient compliance, and improved safety profile such as lower toxicities while achieving similar efficacy.

[8] = male, Sprague-Dawley Crl:CD(SD)

O=C(N[C@@H]1C(=O)Nc2c(F)cc(F)cc2[C@@H]2C[C@H]12)c1nnc(Cc2ccccc2)[nH]1 [Example 83A, 5-benzyl-N-((1aS,2S,8bR)-5,7-difluoro-3-oxo-1,1a,2,3,4,8b-hexahydrobenzo[b]cyclopropa[d]azepin-2-yl)-4H-1,2,4-triazole-3-carboxamide]
Human hepatocyte CLhep Avg [1]: 1.0 mL/min/kg
Cyno unbound CL ([2]; male): 82 mL/min/kg

C[C@H]1Oc2cccnc2N(C)C(=O)[C@H]1NC(=O)c1nnc(Cc2ccccc2)o1 [Example 134, 5-Benzyl-N-((2R,3S)-2,5-dimethyl-4-oxo-2,3,4,5-tetrahydropyrido[3,2-b][1,4]oxazepin-3-yl)-1,3,4-oxadiazole-2-carboxamide]
Rat unbound CL [3, 8]: 100 mL/min/kg
Cyno unbound CL ([2]; male): 140 mL/min/kg

CN1C(=O)[C@@H](NC(=O)c2cc(Cc3ccccc3)on2)COc2ccccc21 [C, reference compound]
Human hepatocyte CLhep Avg [1]: 19 mL/min/kg

CN1C(=O)[C@@H](NC(=O)c2nnc(Cc3ccccc3)o2)COc2ccccc21 [B, reference compound]
Human hepatocyte CLhep Avg [1]: 14 mL/min/kg

CN1C(=O)[C@@H](NC(=O)c2nnc(Cc3ccccc3)o2)[C@H]2C[C@H]2c2nccnc21 [Example 177A]
Rat unbound CL [3]: 55 mL/min/kg
Cyno unbound CL [2]: 58 mL/min/kg

CN1C(=O)[C@@H](NC(=O)c2nnc(Cc3ccccc3)[nH]2)COc2ccccc21 [A, reference compound]
Human hepatocyte CLhep Avg [1]: 6.8 mL/min/kg
Rat unbound CL [3, 8]: 77 mL/min/kg
Dog unbound CL ([4]; male, Beagle): 240 mL/min/kg
inhibition of temperature loss [5]: 93%

CN1C(=O)[C@@H](NC(=O)c2nnc(C3(c4ccccc4)CC3)o2)COc2cccnc21 [Example 66, (S)-N-(5-methyl-4-oxo-2,3,4,5-tetrahydropyrido[3,2-b][1,4]oxazepin-3-yl)-5-(1-phenylcyclopropyl)-1,3,4-oxadiazole-2-carboxamide]
Human hepatocyte CLhep Avg [1]: 6.3 mL/min/kg
Dog unbound CL ([4]; male, Beagle): 36 mL/min/kg

CN1C(=O)[C@@H](NC(=O)c2nc(Cc3ccccc3)n[nH]2)COc2cccnc21 [Example 42]
Rat unbound CL [3]: 22 mL/min/kg
Dog unbound CL [4]: 64 mL/min/kg
Cyno unbound CL [2]: 42 mL/min/kg

C[C@H]1Oc2cccnc2N(C)C(=O)[C@H]1NC(=O)c1ncn(Cc2cccc(C#N)c2)n1 [Example 172]
Rat unbound CL [3]: 65 mL/min/kg

C[C@H]1Oc2cccnc2N(C)C(=O)[C@H]1NC(=O)c1nn(Cc2ccccc2)cc1F [Example 92, 1-benzyl-N-((2R,3S)-2,5-dimethyl-4-oxo-2,3,4,5-tetrahydropyrido[3,2-b][1,4]oxazepin-3-yl)-4-fluoro-1H-pyrazole-3-carboxamide]
Rat unbound CL [3, 8]: 420 mL/min/kg

O=C(N[C@H]1COc2ccccc2-n2ccnc21)c1cc(Cc2ccccc2)on1 [Example 70A, (R)-5-benzyl-N-(4,5-dihydrobenzo[b]imidazo[1,2-d][1,4]oxazepin-4-yl)isoxazole-3-carboxamide]
IC50 [6]: 0.1 to 1000 nM

CN1C(=O)[C@@H](NC(=O)c2nnc(Cc3ccccc3)[nH]2)[C@H]2C[C@H]2c2cccnc21 [Example 75A, 5-benzyl-N-((1aS,2S,8bR)-4-methyl-3-oxo-1,1a,2,3,4,8b-hexahydrocyclopropa[d]pyrido[2,3-b]azepin-2-yl)-4H-1,2,4-triazole-3-carboxamide]
Human hepatocyte CLhep Avg [1]: 9.1 mL/min/kg
Rat unbound CL [3, 8]: 91 mL/min/kg
Cyno unbound CL ([2]; male): 93 mL/min/kg

CN1C(=O)[C@@H](NC(=O)c2nnc(Cc3ccccc3)o2)COc2cccnc21 [Example 146, (S)-5-benzyl-N-(5-methyl-4-oxo-2,3,4,5-tetrahydropyrido[3,2-b][1,4]oxazepin-3-yl)-1,3,4-oxadiazole-2-carboxamide]
Rat unbound CL [3, 8]: 61 mL/min/kg
Cyno unbound CL ([2]; male): 39 mL/min/kg

CN1C(=O)[C@@H](NC(=O)c2cn(Cc3ccccc3)nn2)[C@H]2C[C@H]2c2nccnc21 [Example 195, 1-benzyl-N-((7S,7aS,8aR)-5-methyl-6-oxo-5,6,7,7a,8,8a-hexahydrocyclopropa[d]pyrazino[2,3-b]azepin-7-yl)-1H-1,2,3-triazole-4-carboxamide]
IC50 [6]: 16 nM

C[C@H]1Oc2cccnc2N(C)C(=O)[C@H]1NC(=O)c1nnc(Cc2ccccc2)[nH]1 [Example 94, 5-benzyl-N-((2R,3S)-2,5-dimethyl-4-oxo-2,3,4,5-tetrahydropyrido[3,2-b][1,4]oxazepin-3-yl)-4H-1,2,4-triazole-3-carboxamide]
Rat unbound CL [3, 8]: 44 mL/min/kg
Cyno unbound CL ([2]; male): 40 mL/min/kg

CN1C(=O)[C@@H](NC(=O)c2cc(C3(c4ccccc4)CC3)on2)COc2ccccc21 [Example 8, (S)-N-(5-methyl-4-oxo-2,3,4,5-tetrahydrobenzo[b][1,4]oxazepin-3-yl)-5-(1-phenylcyclopropyl)isoxazole-3-carboxamide]
Rat unbound CL [3, 8]: 3700 mL/min/kg

CN1C(=O)[C@@H](NC(=O)c2cc(C3(c4ccccc4)CC3)on2)COc2cccnc21 [Example 77, (S)-N-(5-methyl-4-oxo-2,3,4,5-tetrahydropyrido[3,2-b][1,4]oxazepin-3-yl)-5-(1-phenylchclopropyl)isoxazole-3-carboxamide]
Human hepatocyte CLhep Avg [1]: 19 mL/min/kg

CN1C(=O)[C@@H](NC(=O)c2nnc(Cc3ccccc3)[nH]2)COc2cccnc21 [Example 42, (S)-5-benzyl-N-(5-methyl-4-oxo-2,3,4,5-tetrahydropyrido[3,2-b][1,4]pxazepin-3-yl)-4H-1,2,4-triazole-3-carboxamide]
Human hepatocyte CLhep Avg [1]: 0.8 mL/min/kg
inhibition of temperature loss [7]: 96%

CN1C(=O)[C@@H](NC(=O)c2ncn(Cc3cccc(C#N)c3)n2)COc2cccnc21 [Example 171, (S)-1-(3-cyanobenzyl)-N-(5-methyl-4-oxo-2,3,4,5-tetrahydropyrido[3,2-b][1,4]oxazepin-3-yl)-1H-1,2,4-triazole-3-carboxamide]
Rat unbound CL [3, 8]: 32 mL/min/kg
